Source: ChEMBL document CHEMBL1201862, “PubChem BioAssay data set” (2004)
Calls of active or inactive are those of the source.

How the values were obtained:
HEK293 = assay: inhibitors of LMP1-driven NF-kB reporter, dose response, cell-based, HEK293, luciferase, cherry-pick (AID 588343); type: functional; details: Homo sapiens
cells [1] = type: functional, cell-based
INS1 = assay: beta cell apoptosis inhibitors, cytokine rescue, dose response, luminescence, retest (AID 449756); type: functional, cell-based; details: Rattus norvegicus;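 note: cell death triggered by IL-1 beta plus TNF-alpha plus IFN-gamma mixture; protective hits raise ATP signal compared with cytokine alone wells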
[2] = molecular target: T1, Latent membrane protein 1 (Human herpesvirus 4 (strain B95-8), UniProt P03230); assay: TES1-eGFP NF-kB reporter inhibition versus Tet-On dsRED, dose response, selectivity assay for LMP1 NF-kB inhibitor project, imaging, HEK293T, dual-color eGFP/dsRED, cherry-picks (AID 588398); type: functional, cell-based
T1 sequence (P03230 whole entry): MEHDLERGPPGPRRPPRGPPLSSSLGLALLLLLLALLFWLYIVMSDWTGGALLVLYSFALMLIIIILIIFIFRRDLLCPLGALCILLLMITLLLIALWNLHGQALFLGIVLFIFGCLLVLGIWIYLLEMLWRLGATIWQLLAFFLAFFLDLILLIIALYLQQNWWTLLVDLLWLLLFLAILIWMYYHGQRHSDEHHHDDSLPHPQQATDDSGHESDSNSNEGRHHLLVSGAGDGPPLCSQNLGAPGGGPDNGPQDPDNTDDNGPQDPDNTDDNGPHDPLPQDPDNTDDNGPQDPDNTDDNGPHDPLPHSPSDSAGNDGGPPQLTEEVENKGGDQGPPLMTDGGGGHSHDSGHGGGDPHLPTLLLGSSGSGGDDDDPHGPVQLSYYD

[3] = cytotoxicity toward DRD oncogenic fibroblasts, dose response, cell-based, non-viral oncogenic, luminescence (AID 1934); type: functional; details: Homo sapiens
BJ [4] = assay: cytotoxicity toward BJ-TERT fibroblasts, dose response, cell-based, RAS-independent, luminescence (AID 1933); type: functional; details: Homo sapiens
BJ [5] = assay: cells; type: functional, cell-based; details: Homo sapiens
BJ [6] = assay: cytotoxicity toward BJ-TERT-LT-ST fibroblasts, dose response, cell-based, RAS-independent, luminescence (AID 1935); type: functional; details: Homo sapiens;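 note: BJ fibroblasts immortalized with TERT plus LT and ST oncogenes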
BJ [7] = assay: cytotoxicity toward Ras-transformed BJeLR fibroblasts, dose response, cell-based, alamar blue fluorescence, cherrypicked samples (AID 2631); type: functional; details: Homo sapiens;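 note: confirmatory dose-response assay in RAS-dependent BJ fibroblasts engineered with TERT, LT and ST, with cytotoxicity read by fluorescence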
[8] = C. albicans growth with fluconazole, confirmation, fluorescence, retest (AID 2467); type: functional, cell-based
cells [9] = type: functional, cell-based; remark: listed apart in the source
[10] = NIH-3T3 fibroblast cytotoxicity, dose response, cytotoxicity control, cell-based, fluorescence, Alamar Blue, secondary assay (AID 2327); type: functional;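 note: NIH-3T3 mouse fibroblasts cultured with fluconazole at 8 µg/mL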
HeLa = assay: HeLa cell cytotoxicity, dose response, cytotoxicity control for MITF activator project, CellTiter-Glo luminescence, cherry-pick samples (AID 540259); type: functional, cell-based; details: Homo sapiens
[11] = molecular target: T2, Sentrin-specific protease 6 (Homo sapiens, UniProt Q9GZR1); type: functional;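 note: Luminescence-based dose-response confirmatory assay of SENP6 inhibition, following up an ultra-high-throughput screen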
T2 sequence (Q9GZR1 whole entry): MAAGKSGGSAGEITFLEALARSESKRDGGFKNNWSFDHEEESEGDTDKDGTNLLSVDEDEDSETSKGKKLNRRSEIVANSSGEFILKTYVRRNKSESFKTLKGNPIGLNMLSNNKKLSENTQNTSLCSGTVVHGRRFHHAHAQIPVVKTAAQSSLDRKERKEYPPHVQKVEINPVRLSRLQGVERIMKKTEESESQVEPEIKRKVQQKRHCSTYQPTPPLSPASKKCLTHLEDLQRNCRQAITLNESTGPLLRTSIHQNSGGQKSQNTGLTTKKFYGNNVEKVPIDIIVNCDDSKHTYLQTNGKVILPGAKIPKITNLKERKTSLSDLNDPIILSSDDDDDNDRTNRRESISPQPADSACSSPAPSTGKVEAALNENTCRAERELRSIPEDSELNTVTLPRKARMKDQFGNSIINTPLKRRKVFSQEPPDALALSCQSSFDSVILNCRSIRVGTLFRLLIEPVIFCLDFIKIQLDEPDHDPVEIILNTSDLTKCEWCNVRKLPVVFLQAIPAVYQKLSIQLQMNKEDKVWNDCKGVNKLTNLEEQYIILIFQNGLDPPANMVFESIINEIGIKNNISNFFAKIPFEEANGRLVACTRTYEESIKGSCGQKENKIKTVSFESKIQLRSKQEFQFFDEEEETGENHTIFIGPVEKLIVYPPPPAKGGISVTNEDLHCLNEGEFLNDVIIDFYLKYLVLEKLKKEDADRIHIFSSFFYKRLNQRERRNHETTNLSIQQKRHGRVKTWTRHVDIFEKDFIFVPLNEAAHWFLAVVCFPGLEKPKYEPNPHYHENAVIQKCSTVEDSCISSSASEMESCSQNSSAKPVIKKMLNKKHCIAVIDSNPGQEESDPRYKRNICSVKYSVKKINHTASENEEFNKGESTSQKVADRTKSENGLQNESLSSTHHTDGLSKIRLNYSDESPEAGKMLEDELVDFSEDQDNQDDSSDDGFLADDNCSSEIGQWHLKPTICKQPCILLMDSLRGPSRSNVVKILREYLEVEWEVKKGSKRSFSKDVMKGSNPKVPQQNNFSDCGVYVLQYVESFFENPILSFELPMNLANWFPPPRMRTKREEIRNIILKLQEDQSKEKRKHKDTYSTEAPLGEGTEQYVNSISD

Caspase-3 = molecular target: T3, Caspase-3 (Homo sapiens, UniProt P42574); type: functional;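 note: Dose-response selectivity test against caspase-3 for candidate inhibitors of sentrin-specific proteases (SENPs)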
T3 sequence (P42574 whole entry): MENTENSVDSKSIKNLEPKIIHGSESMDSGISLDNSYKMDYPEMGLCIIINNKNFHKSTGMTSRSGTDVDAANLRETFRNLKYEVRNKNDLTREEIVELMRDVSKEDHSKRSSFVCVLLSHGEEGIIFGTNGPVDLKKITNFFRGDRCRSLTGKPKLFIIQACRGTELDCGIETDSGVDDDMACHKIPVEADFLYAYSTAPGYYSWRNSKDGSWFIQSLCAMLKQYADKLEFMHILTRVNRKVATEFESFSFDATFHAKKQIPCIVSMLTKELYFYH

[12] = molecular target: T4, Sentrin-specific protease 8 (Homo sapiens, UniProt Q96LD8); type: functional;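 note: luminescence read-out of SENP8 inhibition, dose-response confirmation following an ultra-high-throughput screen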
T4 sequence (Q96LD8 whole entry): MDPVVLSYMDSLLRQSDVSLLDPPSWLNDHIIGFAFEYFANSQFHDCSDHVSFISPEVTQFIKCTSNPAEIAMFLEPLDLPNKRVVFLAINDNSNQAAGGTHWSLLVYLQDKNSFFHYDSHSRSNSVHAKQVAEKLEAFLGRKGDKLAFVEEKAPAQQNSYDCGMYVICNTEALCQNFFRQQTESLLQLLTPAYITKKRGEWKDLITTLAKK

[13] = molecular target: T5, Sentrin-specific protease 7 (Homo sapiens, UniProt Q9BQF6); type: functional;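 note: Luminescence-based dose-response confirmation of ultra-high-throughput screening hits, measuring inhibition of SENP7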
T5 sequence (Q9BQF6 whole entry): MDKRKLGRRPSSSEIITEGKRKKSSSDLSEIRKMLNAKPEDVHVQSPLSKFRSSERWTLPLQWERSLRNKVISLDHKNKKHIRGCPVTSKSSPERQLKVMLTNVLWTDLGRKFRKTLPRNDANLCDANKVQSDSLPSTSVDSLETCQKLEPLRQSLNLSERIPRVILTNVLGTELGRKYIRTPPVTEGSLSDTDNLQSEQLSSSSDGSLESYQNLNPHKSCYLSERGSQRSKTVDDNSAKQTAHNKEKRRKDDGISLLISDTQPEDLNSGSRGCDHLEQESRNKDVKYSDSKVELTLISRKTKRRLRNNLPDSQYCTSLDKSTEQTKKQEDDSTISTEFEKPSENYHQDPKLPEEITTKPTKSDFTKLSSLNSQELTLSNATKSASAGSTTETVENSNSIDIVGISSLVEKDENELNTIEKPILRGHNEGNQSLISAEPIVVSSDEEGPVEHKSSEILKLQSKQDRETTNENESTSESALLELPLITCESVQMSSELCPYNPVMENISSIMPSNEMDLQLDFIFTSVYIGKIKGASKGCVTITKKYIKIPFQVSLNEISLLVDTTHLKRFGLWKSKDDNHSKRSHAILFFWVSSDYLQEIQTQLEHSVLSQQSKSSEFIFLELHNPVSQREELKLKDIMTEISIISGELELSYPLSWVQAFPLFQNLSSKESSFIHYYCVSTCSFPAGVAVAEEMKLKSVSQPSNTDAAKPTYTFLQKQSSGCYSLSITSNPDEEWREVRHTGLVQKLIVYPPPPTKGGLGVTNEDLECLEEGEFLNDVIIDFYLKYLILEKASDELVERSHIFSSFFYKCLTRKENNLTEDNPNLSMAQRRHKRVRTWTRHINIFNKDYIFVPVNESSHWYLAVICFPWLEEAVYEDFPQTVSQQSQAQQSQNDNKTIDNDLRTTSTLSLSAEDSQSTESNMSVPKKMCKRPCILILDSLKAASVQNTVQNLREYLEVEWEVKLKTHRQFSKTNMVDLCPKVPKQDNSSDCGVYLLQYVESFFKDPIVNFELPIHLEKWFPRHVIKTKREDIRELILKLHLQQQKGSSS

Protein Wnt-3a = Protein Wnt-3a (Mus musculus, UniProt P27467); assay: Wnt3a-driven reporter signaling inhibition, dose response, selectivity assay for Gli-SUFU antagonist project, Wnt-LIGHT cells, luminescence (AID 651570); type: functional; details: read-out: IC50_Mean;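 note: Wnt-LIGHT reporter cells stimulated with conditioned medium from Wnt3a-producing cells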
Protein Wnt-3a, sequence (P27467 whole entry): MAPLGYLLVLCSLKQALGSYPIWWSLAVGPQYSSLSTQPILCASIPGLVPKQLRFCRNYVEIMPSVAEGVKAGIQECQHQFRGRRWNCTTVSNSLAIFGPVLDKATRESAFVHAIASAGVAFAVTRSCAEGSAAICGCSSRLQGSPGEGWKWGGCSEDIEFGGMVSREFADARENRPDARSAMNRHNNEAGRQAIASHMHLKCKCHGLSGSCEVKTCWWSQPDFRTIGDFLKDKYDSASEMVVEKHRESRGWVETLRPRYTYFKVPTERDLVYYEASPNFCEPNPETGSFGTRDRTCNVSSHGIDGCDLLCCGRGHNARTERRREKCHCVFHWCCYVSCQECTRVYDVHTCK

[14] = control 3'UTR Renilla luciferase suppression, dose response, counter-screen for Shn3 inhibitor project, cell-based, Clone20-Shn3RL, cherry-picked (AID 624133); type: functional
[15] = Shn3 3'UTR reporter inhibitors, dose response, cell-based, Clone20 osteoblasts, firefly luciferase, cherry-picked (AID 624132); type: functional;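 note: firefly luciferase luminescence from reporter carrying the Shn3 3'UTR in osteoblasts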
[16] = microbe, parasite or virus in culture; type: functional; details: Mycobacterium tuberculosis
[17] = inhibitors of firefly luciferase expression or activity, dose response, H4 neuroglioma cells, luminescence (AID 1990); type: functional, cell-based
[18] = HepG2 cell cytotoxicity, dose response, cytotoxicity control for Shn3 inhibitor project, CellTiter-Glo, cherry-picked (AID 624134); type: functional, cell-based
[19] = inhibitors of SNCA 5'UTR-driven reporter translation, confirmation, H4 neuroglioma cells, luminescence (AID 1988); type: functional, cell-based
[20] = cytotoxicity in HEK-293T cells, dose response, cytotoxicity control for TCR NF-kB inhibitor project, luminescence, T-cell screen hits (AID 489026); type: functional, cell-based;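 note: cells exposed to compound about 14 hours before the viability readout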
[21] = Luminescence Cell-Based Dose Response HTS to Identify Inhibitors of 5'UTR Stem-Loop Driven Prion Protein mRNA Translation in H4 Neuroglioblastoma Cells. [Related pubchem assays: 1827 (Project Summary), 1813 (Primary HTS)]; type: functional
Vero [22] = assay: host cell cytotoxicity of antiviral hits, dose response, cytotoxicity control for West Nile virus antiviral project, secondary assay (AID 1650); type: functional; details: Chlorocebus sabaeus
[23] = Luminescence Cell-Based Dose Retest to Confirm Inhibitors of Cancer Stem Cells. [Related pubchem assays (depositor defined):AID2717, AID2721]; type: functional; details: Homo sapiens
[24] = inhibitors of intracellular T. cruzi replication, confirmation, NIH3T3 host cells, beta-gal luminescence (AID 2044); type: functional, cell-based;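 note: intracellular parasites grown in NIH/3T3 mouse fibroblasts as host cells; luminescent beta-galactosidase reporter signal from transgenic T. cruzi replicating inside host cells; inhibitors lower the luminescence signal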
[25] = cytotoxicity toward NIH3T3 fibroblasts, dose response, counter-screen, cell-based, ATP luminescence, mouse fibroblasts (AID 2010); type: functional;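 note: cells exposed to compound for about 90 hours before reading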
Vero [26] = assay: Vero cell cytotoxicity, cytotoxicity control for flavivirus capping enzyme inhibitors (AID 588742); type: functional; details: Chlorocebus sabaeus
Genome polyprotein = Genome polyprotein (dengue virus type 2, UniProt P29990); assay: Dengue-2 NS5 methyltransferase inhibitors, primary screen, biochemical, confirmation dose response (AID 588689); type: functional
Genome polyprotein, sequence (P29990 2492-3391 limits assumed): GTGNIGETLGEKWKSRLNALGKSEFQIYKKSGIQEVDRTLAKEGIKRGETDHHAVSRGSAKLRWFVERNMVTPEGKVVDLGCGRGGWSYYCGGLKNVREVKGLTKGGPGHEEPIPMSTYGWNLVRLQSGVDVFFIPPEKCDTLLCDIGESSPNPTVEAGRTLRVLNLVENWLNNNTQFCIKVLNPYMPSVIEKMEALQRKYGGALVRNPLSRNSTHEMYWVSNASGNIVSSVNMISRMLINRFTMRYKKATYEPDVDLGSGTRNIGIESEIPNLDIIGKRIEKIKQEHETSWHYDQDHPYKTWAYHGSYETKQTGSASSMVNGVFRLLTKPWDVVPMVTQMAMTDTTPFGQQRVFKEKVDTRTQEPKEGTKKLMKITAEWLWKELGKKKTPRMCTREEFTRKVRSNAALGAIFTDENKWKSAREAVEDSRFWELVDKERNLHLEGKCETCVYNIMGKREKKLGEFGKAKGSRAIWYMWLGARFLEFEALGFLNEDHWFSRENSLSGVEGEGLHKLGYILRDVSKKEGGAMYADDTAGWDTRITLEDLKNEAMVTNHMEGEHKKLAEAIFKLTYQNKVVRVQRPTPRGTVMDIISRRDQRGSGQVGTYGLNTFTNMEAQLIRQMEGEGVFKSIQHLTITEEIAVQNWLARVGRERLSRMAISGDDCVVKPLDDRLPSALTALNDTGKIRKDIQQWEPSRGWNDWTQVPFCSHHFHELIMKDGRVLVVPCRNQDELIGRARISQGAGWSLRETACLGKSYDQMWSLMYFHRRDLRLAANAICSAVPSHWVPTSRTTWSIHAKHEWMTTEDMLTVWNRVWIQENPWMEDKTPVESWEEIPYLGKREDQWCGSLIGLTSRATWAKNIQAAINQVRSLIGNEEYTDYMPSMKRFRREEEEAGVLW

COc1ccc2[nH]c(C(=O)N/N=C/c3ccc(O)cc3O)cc2c1
active: AC50 (HEK293) 7.59 µM | EC50 (cells [1]) 9.59 µM | AC50 (INS1) 0.694 µM | AC50 [2] 20.3 µM | EC50 (BJ [4]) 12.2 µM | EC50 (BJ [5]) 10.8 µM
inconclusive: EC50 [3] 9.2 µM | EC50 (BJ [6]) 10.1 µM

Oc1cnnc(N/N=C/c2ccccn2)n1
> 350 µM (not active): EC50 (cells [9])
active: EC50 (BJ [7]) 0.798 µM | EC50 [8] 1.26 µM | EC50 (cells [1]) 7.62 µM | AC50 (INS1) 1.37 µM | EC50 [3] 6.35 µM | EC50 (BJ [4]) 7.32 µM | EC50 (BJ [5]) 4.19 µM | EC50 (BJ [6]) 6.06 µM
inconclusive: EC50 [10] 2.5 µM

CC(C)NC(=O)c1ccc2c3n(nc2c1)-c1ccc(Cl)cc1CO3
active: AC50 (HeLa) 50.7 µM | IC50 [11] 81.8 µM | IC50 (Caspase-3) 24 µM | IC50 [12] 69.3 µM | IC50 [13] 18.4 µM

Nc1ccc(Br)cc1-c1nc2ccccc2[nH]c1=O
active: IC50 (Protein Wnt-3a) 0.449 µM

Cc1ccc(-c2cnn(-c3cccc([N+](=O)[O-])c3)c2N)cc1
active: IC50 (Caspase-3) 23.7 µM | IC50 [13] 8.04 µM
inactive: IC50 [11] > 100 µM | IC50 [12] > 100 µM

COc1cc(C2c3cc4c(cc3C(OC3OC5COC(c6cccs6)OC5C(O)C3O)C3COC(=O)C23)OCO4)cc(OC)c1O (stereo unspecified)
active: EC50 (BJ [7]) 0.428 µM | AC50 [14] 1.28 µM | AC50 [15] 1.11 µM | CC50 [16] 16.5 µM | EC50 [17] 5.15 µM | AC50 [18] 14.3 µM | EC50 (BJ [6]) 4.24 µM | EC50 [19] < 0.1 µM | EC50 [21] 15.5 µM
inconclusive: EC50 [3] 8.49 µM | EC50 (BJ [4]) 6.51 µM | EC50 (BJ [5]) 5.79 µM
inactive: IC50 [20] > 80 µM

O=C(Nc1cc(C(F)(F)F)cc(C(F)(F)F)c1)Nc1cnn(-c2ccc([N+](=O)[O-])cc2)c1C(F)(F)F
active: AC50 (HEK293) 1.12 µM | AC50 [2] 3.91 µM | CC50 (Vero [22]) 2.94 µM | AC50 [23] 0.442 µM

Cc1ccc2c(c1)S/C(=C/c1ccc[n+](C)c1)N2CCO
inactive: IC50 (Protein Wnt-3a) 26.7 µM
active: AC50 (INS1) 3.77 µM | EC50 [24] 1.16 µM
> 60 µM (not active): EC50 [25]

O=C(c1ccccc1)c1ccc(O)c(O)c1O
active: CC50 (Vero [26]) > 40 µM | IC50 (Genome polyprotein) 57.7 µM
